Reference: paper PMC3950497 (Advances in Pharmacological Sciences, 2014)
Read-outs that look alike come from different tables or passages of the source.

Key:
[1] = assay type: physicochemical
Method: Freeze-thaw stability of stephaglabrine sulfate solution was evaluated because samples were stored at −20°C. The stability of stephaglabrine pool solutions (in water-acetonitrile 20%) at concentrations of 10 μg/mL, 50 μg/mL, and 100 μg/mL was evaluated after three cycles of overnight freezing following 3 hours of bench thaw at ambient temperature. The loss of stepharine was evaluated by comparison with freshly prepared standard solutions of the same concentrations. Loss of 10% and less was accepted.

[2] = assay type: in vivo, rabbit; conditions: for Measured mean concentration of stephaglabrin in plasma: i.m. stephaglabrine sulfate 0.1 mg/kg single dose
Method: The selected rabbits were administrated intramuscular with stephaglabrine sulfate at doses 0.1 mg/kg as it was established before. Each animal received a single dose.
Quantitative analysis was acquired in SRM (selected reactions monitoring) mode on Agilent 6490 triple quadrupole mass spectrometer (Agilent, USA) operated in the positive mode and equipped with Jet Stream ESI ion source. Stepharine was detected in the scheduled selected reaction monitoring (SRM) with unit resolution at both first (Q1) and third (Q3) quadrupoles. The retention time point of stepharine was determined as 9.8 with isolation width of 1 minute for the scheduled SRM method application. The optimal conditions of the analysis were achieved as follows: capillary voltage was −4500 V, nozzle voltage was set at −1200 V, flow rate of drying gas (N2) was 16 L/min, flow rate of sheath gas (N2) was 8 L/min, temperature of drying gas was set at 340°C, temperature of sheath gas was set at 290°C, and nebulizer gas was operated at 20 psi. The transitions for protonated stepharine [M+H]^+ 298.4 → 161.2, 192.1, 238.2 were selected for SRM analysis. The isolation window for the fragment ions was set at 0.27 amu, the optimum fragmentor voltage was adjusted to 310 V and collision energy −19 eV. All the samples including calibration points were analyzed in three replications. 30 μL of the samples was injected and loaded on chromatographic column. Calibration was performed on standard samples solution prepared in 20% acetonitrile with concentration of stepharine from 10^−4 μg/mL to 100 μg/mL. Chromatographic separation was performed on Thermo Hypersil-Keystone ODS column (Thermo Scientific, USA) 100 × 2.1 mm, 5 μm particle size, at flow rate of 200 μL/min and with the following elution conditions: loading onto the column at maintained 20% of mobile phase B for 3 minutes, increasing the gradient to 50% of B at 5 minutes following increasing the gradient to 100% of mobile phase B at 15 minutes. The column was washed and maintained at 100% mobile phase B from 15 to 22 minutes and the composition was decreased to 20% of solvent B at 23 minute. The column was reequilibrated at starting conditions of solvent A-solvent B system ([…], v/v) for 10 minutes at flow 200 μL/min.
0.5 mL of blood samples from each animal was collected from ear vein in the tubes with EDTA before administration and at 15, 30, 60, 90, 120, 180, 480, 720, and 1440 minutes after drug ingestion. Blood samples were immediately put on ice and centrifuged at 5000 g for 10 minutes at 4°C within one hour after blood collection. The obtained plasma was placed in sterile tube and kept at −20°C until analysis.
Plasma proteins were precipitated with acetonitrile. For this purpose, two volumes of acetonitrile were added to 100 μL of rabbit plasma into 1.5 mL plastic tube and 30% ammonia hydroxide was added to adjust the pH to 10. After vortex-mixing for 15 minutes at ambient temperature one volume of chloroform was added three times consequently for 2 hours and incubated at 30°C under regular stirring at 900 rpm at each occasion. The first fraction of upper organic layer was collected after 2 hours of incubation, the second and the third fractions of chloroform extract were collected after additional 30 and 60 minutes of incubation, respectively. The collected fractions were combined and transferred to a new tube and dried under vacuum at 30°C. The resulting pellet was resuspended in 100 μL of 20% water-acetonitrile solution and centrifuged at 14000 rpm for 15 minutes immediately before use. The obtained solution was used for LC-MS analysis. […]

Q: Which “loss during three freeze-thaw cycles” value ([1]; solutions in water-acetonitrile 20% at 10, 50 and 100 μg/mL, overnight freezing, 3 hours bench thaw at ambient temperature) does the source give for `COc1cc2c3c(c1OC)C1(C=CC(=O)C=C1)C[C@@H]3NCC2` [stepharine] here?
A: less than 6%

Q: And the mean sample stability ([1]; three freeze-thaw cycles, solutions in water-acetonitrile 20%)?
A: 94.6%

Q: And the “time of maximum concentration (C max)” value ([2]; all rabbits, i.m. 0.1 mg/kg stephaglabrine sulfate)?
A: 90 min

Q: What about the “Measured mean concentration of stephaglabrin in plasma” value (“Measured mean concentration” for short) ([2]; rabbit ST01, 15 min after administration) of the same compound?
A: 8.1 ± 0.6 ng/mL

Q: And the “Measured mean concentration” value ([2]; rabbit ST01, 30 min after administration)?
A: 9.4 ± 0.5 ng/mL

Q: What about the “Measured mean concentration” value ([2]; rabbit ST01, 60 min after administration) of the same compound?
A: 10.0 ± 0.3 ng/mL

Q: What about the “Measured mean concentration” value ([2]; rabbit ST01, 90 min after administration) of the same compound?
A: 13.9 ± 0.9 ng/mL

Q: And the “Measured mean concentration” value ([2]; rabbit ST01, 120 min after administration)?
A: 5.8 ± 0.1 ng/mL

Q: What about the “Measured mean concentration” value ([2]; rabbit ST01, 180 min after administration) of the same compound?
A: 3.8 ± 0.1 ng/mL

Q: What about the “Measured mean concentration” value ([2]; rabbit ST01, 480 min after administration) of the same compound?
A: 1.8 ± 0.02 ng/mL

Q: And the “Measured mean concentration” value ([2]; rabbit ST01, 720 min after administration)?
A: 1.5 ± 0.02 ng/mL

Q: What about the “Measured mean concentration” value ([2]; rabbit ST01, 1440 min after administration) of the same compound?
A: 0 ng/mL

Q: What about the “Measured mean concentration” value ([2]; rabbit ST02, 15 min after administration) of the same compound?
A: 7.9 ± 0.2 ng/mL

Q: And the “Measured mean concentration” value ([2]; rabbit ST02, 30 min after administration)?
A: 16.5 ± 0.8 ng/mL

Q: What about the “Measured mean concentration” value ([2]; rabbit ST02, 60 min after administration) of the same compound?
A: 29.3 ± 2.2 ng/mL

Q: And the “Measured mean concentration” value ([2]; rabbit ST02, 90 min after administration)?
A: 33.9 ± 2.8 ng/mL

Q: What about the “Measured mean concentration” value ([2]; rabbit ST02, 120 min after administration) of the same compound?
A: 10.4 ± 0.5 ng/mL

Q: And the “Measured mean concentration” value ([2]; rabbit ST02, 180 min after administration)?
A: 7.8 ± 0.3 ng/mL

Q: And the “Measured mean concentration” value ([2]; rabbit ST02, 480 min after administration)?
A: 1.2 ± 0.02 ng/mL

Q: And the “Measured mean concentration” value ([2]; rabbit ST02, 720 min after administration)?
A: 1.3 ± 0.01 ng/mL

Q: And the “Measured mean concentration” value ([2]; rabbit ST02, 1440 min after administration)?
A: 0 ng/mL

Q: What about the “Measured mean concentration” value ([2]; rabbit ST03, 15 min after administration) of the same compound?
A: 6.8 ± 0.4 ng/mL

Q: What about the “Measured mean concentration” value ([2]; rabbit ST03, 30 min after administration) of the same compound?
A: 14.8 ± 0.2 ng/mL

Q: And the “Measured mean concentration” value ([2]; rabbit ST03, 60 min after administration)?
A: 19.5 ± 0.6 ng/mL

Q: What about the “Measured mean concentration” value ([2]; rabbit ST03, 90 min after administration) of the same compound?
A: 20.4 ± 1.7 ng/mL

Q: And the “Measured mean concentration” value ([2]; rabbit ST03, 120 min after administration)?
A: 6.5 ± 0.1 ng/mL

Q: And the “Measured mean concentration” value ([2]; rabbit ST04, 15 min after administration)?
A: 5.7 ± 0.2 ng/mL

Q: What about the “Measured mean concentration” value ([2]; rabbit ST04, 30 min after administration) of the same compound?
A: 7.3 ± 0.3 ng/mL

Q: What about the “Measured mean concentration” value ([2]; rabbit ST04, 60 min after administration) of the same compound?
A: 9.5 ± 0.5 ng/mL

Q: What about the “Measured mean concentration” value ([2]; rabbit ST04, 90 min after administration) of the same compound?
A: 14.2 ± 0.2 ng/mL

Q: What about the “Measured mean concentration” value ([2]; rabbit ST04, 120 min after administration) of the same compound?
A: 9.7 ± 0.2 ng/mL

Q: And the “Measured mean concentration” value ([2]; rabbit ST04, 180 min after administration)?
A: 2.8 ± 0.2 ng/mL

Q: What about the “Measured mean concentration” value ([2]; rabbit ST04, 480 min after administration) of the same compound?
A: 0.7 ± 0.01 ng/mL

Q: What about the “Measured mean concentration” value ([2]; rabbit ST04, 720 min after administration) of the same compound?
A: 0.6 ± 0.01 ng/mL

Q: What about the “Measured mean concentration” value ([2]; rabbit ST04, 1440 min after administration) of the same compound?
A: 0 ng/mL

Q: And the “Measured mean concentration” value ([2]; rabbit ST05, 15 min after administration)?
A: 6.3 ± 0.2 ng/mL

Q: And the “Measured mean concentration” value ([2]; rabbit ST05, 30 min after administration)?
A: 12.7 ± 0.3 ng/mL

Q: And the “Measured mean concentration” value ([2]; rabbit ST05, 60 min after administration)?
A: 18.5 ± 0.2 ng/mL

Q: And the “Measured mean concentration” value ([2]; rabbit ST05, 90 min after administration)?
A: 21.2 ± 0.2 ng/mL

Q: What about the “Measured mean concentration” value ([2]; rabbit ST05, 120 min after administration) of the same compound?
A: 5.1 ± 0.3 ng/mL

Q: And the “Measured mean concentration” value ([2]; rabbit ST05, 180 min after administration)?
A: 2.9 ± 0.07 ng/mL

Q: What about the “Measured mean concentration” value ([2]; rabbit ST05, 480 min after administration) of the same compound?
A: 1.4 ± 0.08 ng/mL

Q: And the “Measured mean concentration” value ([2]; rabbit ST05, 720 min after administration)?
A: 0.9 ± 0.04 ng/mL

Q: And the “Measured mean concentration” value ([2]; rabbit ST05, 1440 min after administration)?
A: 0 ng/mL

Q: And the “Measured mean concentration” value ([2]; rabbit ST06, 15 min after administration)?
A: 7.0 ± 0.3 ng/mL

Q: And the “Measured mean concentration” value ([2]; rabbit ST06, 30 min after administration)?
A: 13.9 ± 0.2 ng/mL

Q: And the “Measured mean concentration” value ([2]; rabbit ST06, 60 min after administration)?
A: 20.4 ± 0.2 ng/mL

Q: What about the “Measured mean concentration” value ([2]; rabbit ST06, 90 min after administration) of the same compound?
A: 25.8 ± 0.1 ng/mL

Q: And the “Measured mean concentration” value ([2]; rabbit ST06, 120 min after administration)?
A: 7.6 ± 0.09 ng/mL

Q: What about the “Measured mean concentration” value ([2]; rabbit ST06, 180 min after administration) of the same compound?
A: 3.3 ± 0.08 ng/mL

Q: What about the “Measured mean concentration” value ([2]; rabbit ST06, 480 min after administration) of the same compound?
A: 1.2 ± 0.08 ng/mL

Q: And the “Measured mean concentration” value ([2]; rabbit ST06, 720 min after administration)?
A: 0.7 ± 0.02 ng/mL

Q: What about the “Measured mean concentration” value ([2]; rabbit ST06, 1440 min after administration) of the same compound?
A: 0 ng/mL

Q: And the “presence in plasma samples after 24 hours” value ([2]; rabbits, 24 hours after intramuscular administration)?
A: not found

Q: What about the “apparent volume of distribution” value ([2]; rabbits, estimated as ratio of clearance to elimination rate constant, data not shown) of the same compound?
A: extensively distributed throughout the body
